Here are results for 17 compounds from the OPERA property sets (Mansouri et al. 2018).

Turning to `O=c1cc(-c2ccc(O)c(O)c2)oc2cccc(O)c12`, the logP – broadly, the decadic logarithm of the partition coefficient of the neutral form, usually between octanol and water – worked out at 3.31.

The compound `O=C1c2ccc(O)cc2OC(c2ccc(O)c(O)c2)C1O` (configuration not stated) gave a lipophilicity (logP) of 0.87.

As for `COc1ccc(-c2cc(=O)c3c(O)cc(O[C@@H]4O[C@H](CO[C@@H]5O[C@@H](C)[C@H](O)[C@@H](O)[C@H]5O)[C@@H](O)[C@H](O)[C@H]4O)cc3o2)cc1O`, the log partition coefficient (logP) worked out at 0.14.

`O=c1cc(-c2ccc(O)c(O)c2)oc2cc(O)cc(O)c12` showed a logP of 2.53.

`O=c1cc(-c2ccccc2)oc2cc(O)cc(O)c12` registered a logP of 3.52.

`COc1ccc(-c2cc(=O)c3c(O)cc(O)cc3o2)cc1O` registered a logP of 3.1.

Turning to `C[C@@H]1O[C@@H](O[C@H]2[C@H](Oc3cc(O)c4c(c3)O[C@H](c3ccc(O)cc3)CC4=O)O[C@H](CO)[C@@H](O)[C@@H]2O)[C@H](O)[C@H](O)[C@H]1O`, the lipophilicity (logP) is -0.44.

`O=c1cc(-c2ccc(O)cc2)oc2cc(O)cc(O)c12` showed a lipophilicity (logP) of 3.02.

In the case of `O=C1C[C@@H](c2ccc(O)c(O)c2)Oc2cc(O)ccc21`, the lipophilicity (logP) was found to be 1.94.

Compound `Oc1cc(O)c2c(c1)O[C@H](c1ccc(O)c(O)c1)[C@@H](O)C2` had a logP of 0.51.

`COc1ccc([C@@H]2CC(=O)c3c(O)cc(O)cc3O2)cc1O`: the logP amounted to 2.6.

The compound `O=C1CC(c2cccc(O)c2)Oc2cc(O)cc(O)c21` (configuration not stated) yielded a lipophilicity (logP) of 2.61.

For the compound `O=C1CC(c2ccc(O)c(O)c2)Oc2cccc(O)c21` (configuration not stated), the log partition coefficient (logP) was 2.81.

`O=C1CC(c2ccc(O)c(O)c2)Oc2cc(O)cc(O)c21` (configuration not stated) showed a lipophilicity (logP) of 2.02.

Compound `O=C1C[C@@H](c2ccc(O)cc2)Oc2cc(O)cc(O)c21` had a logP of 2.52.

Consider `O=C1c2c(O)cc(O)cc2O[C@H](c2ccc(O)c(O)c2)[C@H]1O`, for which the lipophilicity (logP) was found to be 0.95.

`O=c1cc(-c2ccccc2)oc2cccc(O)c12` returned a logP of 4.3.
